The results in this text go back to ChEMBL document CHEMBL3046283, “The simple synthesis and antimicrobial activity of novel fluoroquinolone derivatives from natural amino acid salts” (2012).

Assay [1] has as its system Aspergillus fumigatus. In words: Antifungal activity against Aspergillus fumigatus at 1 mg/ml after 24 hr by […]. Particulars: for zone of inhibition at 1000 µg/mL: read-out: DIZ. Format: functional.
Assay [2] relates to Staphylococcus aureus. In words: Antibacterial activity against Staphylococcus aureus at 1 mg/ml after 24 hr by […]. Particulars: for zone of inhibition at 1000 µg/mL: read-out: DIZ. Format: functional.
The subject of assay [3] is Staphylococcus aureus. In words: Antibacterial activity against Staphylococcus aureus at 0.2 mg/ml after 24 hr by […]. Format: functional.
The test system of assay [4] is Aspergillus fumigatus. In words: Antifungal activity against Aspergillus fumigatus at 0.2 mg/ml after 24 hr by […]. Format: functional.
Assay [5] has as its system Aspergillus fumigatus. In words: Antifungal activity against Aspergillus fumigatus at 0.1 mg/ml after 24 hr by […]. Format: functional, organism-based.
Assay [6] concerns Bacillus subtilis. In words: Antibacterial activity against Bacillus subtilis at 0.2 mg/ml after 24 hr by […]. Particulars: read-out: DIZ. Format: functional.
Assay [7] deals with Bacillus subtilis. The assay is described as follows: Antibacterial activity against Bacillus subtilis at 0.1 mg/ml after 24 hr by […]. Format: functional. As to conditions: for zone of inhibition at 100 µg/mL: read-out: DIZ.
For assay [8], the system named is Candida albicans. The assay is described as follows: Antifungal activity against Candida albicans at 0.1 to 1 mg/ml after 24 hr by […]. Format: functional, organism-based.
The test system of assay [9] is Staphylococcus aureus. The assay is described as follows: Antibacterial activity against Staphylococcus aureus at 0.1 mg/ml after 24 hr by […]. Format: functional.
The subject of assay [10] is Bacillus subtilis. The assay is described as follows: Antibacterial activity against Bacillus subtilis at 1 mg/ml after 24 hr by […]. Format: functional. As to conditions: read-out: DIZ.

Molecules are shown by their SMILES. Where a name gives a salt, the structure may show the parent alone. Active and inactive are the calls of the source. The calls are words filed in the database; no cut-off is given here.

As to `CN1CCN(c2c(F)cc3c(=O)c(C(=O)O)cn(C(C(=O)O)c4ccccc4)c3c2F)CC1` (stereo not given), the figures for the zone of inhibition at 1000 µg/mL in assay [1], in assay [2] and in assay [10] were 0.6 mm, 0.6 mm and 1.05 mm, respectively. Further, the “diameter of the inhibition zone (DIZ)” value in assay [3], in assay [4], in [5], in assay [8] and in assay [9] was “inactive” each time. For the same compound, the zone of inhibition at 200 µg/mL in assay [6] amounted to 0.9 mm. Moreover, the zone of inhibition at 100 µg/mL in [7] was 0.6 mm.
Turning to `C[C@H]1COc2c(N3CCN(C)CC3)c(F)cc3c(=O)c(C(=O)O)cn1c23` [LEVOFLOXACIN HYDROCHLORIDE], the “diameter of the inhibition zone (DIZ)” value in [1], in assay [4], in [5] and in [8] was “inactive” throughout. For the same compound, the zone of inhibition at 1000 µg/mL stood at 3.3 mm in [2] and 4.6 mm in assay [10]. The zone of inhibition at 200 µg/mL in assay [3] (read-out: DIZ) is 2.9 mm; in [6] it was 3.8 mm. For the same compound, the results for the zone of inhibition at 100 µg/mL in assay [7] and in [9] (read-out: DIZ) were 3.6 mm and 2.6 mm, respectively.
Turning to `CCC(C)C(C(=O)O)n1cc(C(=O)O)c(=O)c2cc(F)c(N3CCN(C)CC3)c(F)c21` (stereo not given), the “diameter of the inhibition zone (DIZ)” value in [1], in assay [3], in [4], in assay [5], in assay [8] and in assay [9] was “inactive” throughout. In addition, the zone of inhibition at 1000 µg/mL came out at 0.6 mm in assay [2] and 1.2 mm in assay [10]. The zone of inhibition at 200 µg/mL in assay [6] is 1.15 mm. Also, in assay [7], the zone of inhibition at 100 µg/mL is 0.6 mm.
`CN1CCN(c2c(F)cc3c(=O)c(C(=O)O)cn(C(Cc4ccccc4)C(=O)O)c3c2F)CC1` (stereo not given): the zone of inhibition at 1000 µg/mL was 0.75 mm in [1], 0.8 mm in assay [2] and 1.2 mm in [10]. In addition, the “diameter of the inhibition zone (DIZ)” value in assay [3], in assay [4], in assay [5], in [7], in assay [8] and in [9] was “inactive” each time. The zone of inhibition at 200 µg/mL in assay [6] came out at 0.95 mm.
As for `CC(C)C(C(=O)O)n1cc(C(=O)O)c(=O)c2cc(F)c(N3CCN(C)CC3)c(F)c21` (stereo not given), the “diameter of the inhibition zone (DIZ)” value in assay [1], in assay [2], in [3], in [4], in assay [5] and in assay [7] was “inactive” throughout. Moreover, the “diameter of the inhibition zone (DIZ)” value in assay [8] and in assay [9] was “inactive” in each case. Moreover, the zone of inhibition at 200 µg/mL in [6] worked out at 0.7 mm. In addition, the zone of inhibition at 1000 µg/mL in assay [10] came out at 1 mm.
As to `CC(C)CC(C(=O)O)n1cc(C(=O)O)c(=O)c2cc(F)c(N3CCN(C)CC3)c(F)c21` (stereo not given), the “diameter of the inhibition zone (DIZ)” value in assay [1], in assay [3], in assay [4], in [5], in [7] and in assay [8] was “inactive” each time. Also, the “diameter of the inhibition zone (DIZ)” value in assay [9] is “inactive”. Besides, the zone of inhibition at 1000 µg/mL in assay [2] stood at 0.6 mm; in assay [10], 1.15 mm. Moreover, the zone of inhibition at 200 µg/mL in [6] stood at 0.95 mm.
For the compound `CN1CCN(c2c(F)cc3c(=O)c(C(=O)O)cn(CC(=O)O)c3c2F)CC1`, the results for the zone of inhibition at 1000 µg/mL in assay [1], in [2] and in assay [10] were 1 mm, 0.7 mm and 1.1 mm, respectively. Also, the “diameter of the inhibition zone (DIZ)” value in assay [3], in assay [5], in [8] and in assay [9] was “inactive” in each case. Moreover, the results for the zone of inhibition at 200 µg/mL in assay [4] (read-out: DIZ) and in assay [6] were 0.6 mm and 0.9 mm, respectively. In addition, the zone of inhibition at 100 µg/mL in [7] turned out to be 0.65 mm.
